Assays:
Assay type in all cases: in vivo
[1] = tested on: Erysiphe graminis f. sp. tritici; assay: Test I: wheat powdery mildew, spray on wheat seedlings the day before inoculation; settings: 200 ppm test suspension
Text: General protocol for preparing test suspensions for Tests A-I: the test compounds were first dissolved in acetone in an amount equal to 3% of the final volume and then suspended at the desired concentration (in ppm) in acetone and purified water (50/50 mix by volume) containing 250 ppm of the surfactant Trem® 014 (polyhydric alcohol esters). The resulting test suspensions were then used in Tests A-I. Spraying a 200 ppm test suspension to the point of run-off on the test plants was the equivalent of a rate of 500 g/ha. […] (An asterisk “*” next to the rating value indicates a 40 ppm test suspension was used.) The test suspension was sprayed to the point of run-off on wheat seedlings. The following day, the seedlings were inoculated with a spore dust of Erysiphe graminis f. sp. tritici, (the causal agent of wheat powdery mildew) and incubated in a growth chamber at 20° C. for 7 days, after which time visual disease ratings were made. […] A dash (-) indicates no test results. All results are for 200 ppm except where followed by an asterisk “*”, which indicates a 40 ppm.

[2] = tested on: Puccinia recondita f. sp. tritici; assay: Test H: wheat leaf rust, spray on wheat seedlings the day before inoculation; settings: 200 ppm test suspension, sprayed before inoculation
Text: General protocol for preparing test suspensions for Tests A-I: the test compounds were first dissolved in acetone in an amount equal to 3% of the final volume and then suspended at the desired concentration (in ppm) in acetone and purified water (50/50 mix by volume) containing 250 ppm of the surfactant Trem® 014 (polyhydric alcohol esters). The resulting test suspensions were then used in Tests A-I. Spraying a 200 ppm test suspension to the point of run-off on the test plants was the equivalent of a rate of 500 g/ha. […] (An asterisk “*” next to the rating value indicates a 40 ppm test suspension was used.) The test suspension was sprayed to the point of run-off on wheat seedlings. The following day, the seedlings were inoculated with a spore suspension of Puccinia recondita f. sp. tritici (the causal agent of wheat leaf rust) and incubated in a saturated atmosphere at 20° C. for 24 h, and then moved to a growth chamber at 20° C. for 6 days, after which time visual disease ratings were made Results for Tests A-I are given in Table A. […] A dash (-) indicates no test results. All results are for 200 ppm except where followed by an asterisk “*”, which indicates a 40 ppm.

Alternaria solani = assay: Test B: tomato early blight, spray on tomato seedlings the day before inoculation; settings: 200 ppm test suspension
Text: General protocol for preparing test suspensions for Tests A-I: the test compounds were first dissolved in acetone in an amount equal to 3% of the final volume and then suspended at the desired concentration (in ppm) in acetone and purified water (50/50 mix by volume) containing 250 ppm of the surfactant Trem® 014 (polyhydric alcohol esters). The resulting test suspensions were then used in Tests A-I. Spraying a 200 ppm test suspension to the point of run-off on the test plants was the equivalent of a rate of 500 g/ha. […] (An asterisk “*” next to the rating value indicates a 40 ppm test suspension was used.) The test suspension was sprayed to the point of run-off on tomato seedlings. The following day, the seedlings were inoculated with a spore suspension of Alternaria solani (the causal agent of tomato early blight) and incubated in a saturated atmosphere at 27° C. for 48 h, and then moved to a growth chamber at 20° C. for 5 days, after which time visual disease ratings were made. […] A dash (-) indicates no test results. All results are for 200 ppm except where followed by an asterisk “*”, which indicates a 40 ppm.

Botrytis cinerea = assay: Test A: tomato Botrytis, spray on tomato seedlings the day before inoculation; settings: 200 ppm test suspension
Text: General protocol for preparing test suspensions for Tests A-I: the test compounds were first dissolved in acetone in an amount equal to 3% of the final volume and then suspended at the desired concentration (in ppm) in acetone and purified water (50/50 mix by volume) containing 250 ppm of the surfactant Trem® 014 (polyhydric alcohol esters). The resulting test suspensions were then used in Tests A-I. Spraying a 200 ppm test suspension to the point of run-off on the test plants was the equivalent of a rate of 500 g/ha. […] (An asterisk “*” next to the rating value indicates a 40 ppm test suspension was used.) The test suspension was sprayed to the point of run-off on tomato seedlings. The following day, the seedlings were inoculated with a spore suspension of Botrytis cinerea (the causal agent of tomato Botrytis) and incubated in a saturated atmosphere at 20° C. for 48 h, and then moved to a growth chamber at 24° C. for 3 additional days, after which time visual disease ratings were made. […] A dash (-) indicates no test results. All results are for 200 ppm except where followed by an asterisk “*”, which indicates a 40 ppm.

Septoria nodorum = assay: Test E: Septoria glume blotch, spray on wheat seedlings the day before inoculation; settings: 200 ppm test suspension
Text: General protocol for preparing test suspensions for Tests A-I: the test compounds were first dissolved in acetone in an amount equal to 3% of the final volume and then suspended at the desired concentration (in ppm) in acetone and purified water (50/50 mix by volume) containing 250 ppm of the surfactant Trem® 014 (polyhydric alcohol esters). The resulting test suspensions were then used in Tests A-I. Spraying a 200 ppm test suspension to the point of run-off on the test plants was the equivalent of a rate of 500 g/ha. […] (An asterisk “*” next to the rating value indicates a 40 ppm test suspension was used.) The test suspension was sprayed to the point of run-off on wheat seedlings. […] A dash (-) indicates no test results. All results are for 200 ppm except where followed by an asterisk “*”, which indicates a 40 ppm.

Septoria tritici = assay: Test F: wheat leaf blotch, spray on wheat seedlings the day before inoculation; settings: 200 ppm test suspension
Text: General protocol for preparing test suspensions for Tests A-I: the test compounds were first dissolved in acetone in an amount equal to 3% of the final volume and then suspended at the desired concentration (in ppm) in acetone and purified water (50/50 mix by volume) containing 250 ppm of the surfactant Trem® 014 (polyhydric alcohol esters). The resulting test suspensions were then used in Tests A-I. Spraying a 200 ppm test suspension to the point of run-off on the test plants was the equivalent of a rate of 500 g/ha. […] (An asterisk “*” next to the rating value indicates a 40 ppm test suspension was used.) The test suspension was sprayed to the point of run-off on wheat seedlings. The following day, the seedlings were inoculated with a spore suspension of Septoria tritici (the causal agent of wheat leaf blotch) and incubated in a saturated atmosphere at 24° C. for 48 h, and then the seedlings were moved to a growth chamber at 20° C. for 19 additional days, after which time visual disease ratings were made. […] A dash (-) indicates no test results. All results are for 200 ppm except where followed by an asterisk “*”, which indicates a 40 ppm.

[3] = tested on: Puccinia recondita f. sp. tritici; assay: Test G: wheat leaf rust, spray on wheat seedlings after inoculation (curative); settings: 200 ppm test suspension, sprayed after inoculation
Text: General protocol for preparing test suspensions for Tests A-I: the test compounds were first dissolved in acetone in an amount equal to 3% of the final volume and then suspended at the desired concentration (in ppm) in acetone and purified water (50/50 mix by volume) containing 250 ppm of the surfactant Trem® 014 (polyhydric alcohol esters). The resulting test suspensions were then used in Tests A-I. Spraying a 200 ppm test suspension to the point of run-off on the test plants was the equivalent of a rate of 500 g/ha. […] (An asterisk “*” next to the rating value indicates a 40 ppm test suspension was used.) Wheat seedlings were inoculated with a spore suspension of Puccinia recondita f. sp. tritici (the causal agent of wheat leaf rust) and incubated in a saturated atmosphere at 20° C. for 24 h, and then moved to a growth chamber at 20° C. for 2 days. At the end of this time, the test suspension was sprayed to the point of run-off, and then the seedlings were moved to a growth chamber at 20° C. for 4 days after which time visual disease ratings were made. […] A dash (-) indicates no test results. All results are for 200 ppm except where followed by an asterisk “*”, which indicates a 40 ppm.

Structure (SMILES) | pest or weed control at 200 ppm ([1]; Blumeria graminis, 168 h, read-out: Test I rating (100 = 100% disease control, 0 = no disease control)) [%] | pest or weed control at 200 ppm ([2]; Puccinia recondita, 168 h, read-out: Test H rating (100 = 100% disease control, 0 = no disease control)) [%] | pest or weed control at 200 ppm (Alternaria solani; Alternaria solani, 168 h, read-out: Test B rating (100 = 100% disease control, 0 = no disease control)) [%] | pest or weed control at 200 ppm (Botrytis cinerea; Botrytis cinerea, 120 h, read-out: Test A rating (100 = 100% disease control, 0 = no disease control)) [%] | pest or weed control at 200 ppm (Septoria nodorum; Parastagonospora nodorum, 264 h, read-out: Test E rating (100 = 100% disease control, 0 = no disease control)) [%] | pest or weed control at 200 ppm (Septoria tritici; Zymoseptoria tritici, 504 h, read-out: Test F rating (100 = 100% disease control, 0 = no disease control)) [%] | pest or weed control at 200 ppm ([3]; Puccinia recondita, 96 h, read-out: Test G rating (100 = 100% disease control, 0 = no disease control)) [%] | Test I rating (100 = 100% disease control, 0 = no disease control) [1] [%] | Test H rating (100 = 100% disease control, 0 = no disease control) [2] [%] | Test B rating (100 = 100% disease control, 0 = no disease control) (Alternaria solani) [%] | Test A rating (100 = 100% disease control, 0 = no disease control) (Botrytis cinerea) [%] | Test E rating (100 = 100% disease control, 0 = no disease control) (Septoria nodorum) [%] | Test F rating (100 = 100% disease control, 0 = no disease control) (Septoria tritici) [%] | Test G rating (100 = 100% disease control, 0 = no disease control) [3] [%]
COc1cc(OC)cc(-c2c(C)oc(=O)c(C)c2-c2ccc(F)cc2F)c1 [Compound 42, 4-(2,4-difluorophenyl)-5-(3,5-dimethoxyphenyl)-3,6-dimethyl-2H-pyran-2-one] | 99 | 100 | 0 | 98 | 0 | 100 | 0 |  |  |  |  |  |  | 
COc1cc(OC)cc(-c2c(C)oc(=O)c(C)c2-c2c(F)cc(OC)cc2F)c1 [Compound 43] |  |  |  |  |  |  |  | 100 | 100 | 100 | 100 | 100 | 100 | 98
COc1cc(F)c(-c2c(C)oc(=O)c(C)c2-c2c(Cl)c(OC)cc(OC)c2Cl)c(F)c1 [Compound 44] |  |  |  |  |  |  |  | 0 | 96 | 0 | 79 | 0 | 73 | 26
COc1cc(OC)cc(-c2c(-c3ccc(F)cc3Cl)c(C)oc(=O)c2C)c1 [Compound 46] |  |  |  |  |  |  |  | 99 | 100 | 98 | 100 | 95 | 100 | 79

From patent publication US20120329787A1, “FUNGICIDAL PYRANONES AND OXAZINONES” (E.I. DU PONT DE NEMOURS AND COMPANY, priority 2011, published 2012)
